Starred links: 1 amine or outer side, 2 acyl side, 3 side chain; linkers in the order of their positions; H or OH if unused. Non-standard residues stand in square brackets, D forms with d. Residues, ends and D or L forms follow the SMILES beside them. *: point of attachment. Dolaproine = CO[C@@H]([C@@H]1CCCN1)[C@@H](C)C(=O)O; Dil = CC[C@H](C)[C@H](NC)[C@@H](CC(=O)O)OC; PABC = O=C(OCc1ccc(N[*:1])cc1)[*:2]; X1 = O=C(CCCC(=O)*)ON1C(=O)CCC1=O; X2 = C[C@@H](N*)[C@@H](O)c1ccccc1; Cit = NC(=O)NCCC[C@H](N)C(=O)O; NMeV = CN[C@H](C(=O)O)C(C)C

The source of these data is patent publication US20220184222A1, “BICYCLE TOXIN CONJUGATES AND USES THEREOF” (BicycleTx Limited, priority 2019, published 2022).

Assay type in all cases: in vivo, Mus musculus
The subject of data set [1] is CTG-0363. In words: Champions TumorGraft NSCLC PDX efficacy, model CTG-0363. The method, then: (§1) Mice were implanted subcutaneously into the left flank with tumor fragments from one of the various models. After tumors grew to an average of 150-300 mm^3, mice were treated by IV administration Q7Dx4 (n=2) with vehicle or 3 mg/kg of BT5528. Effects on tumor growth were evaluated by measuring percent tumor growth inhibition (% TGI), and the number of complete responders (CR), partial responders (PR), and tumor-free survivors (TFS). Tolerability was assessed by body weight loss, lethality, and clinical signs of adverse treatment-related side effects. Tumor volumes and body weights were measured twice a week.
(§2) Dosing solutions of BT5528 […] were pre-formulated. These dosing solutions were stored at −80° C. in the dark. On each day of dosing, a frozen aliquot of each test agent was thawed, stored at 2-8° C. and used for dosing.
(§3) The animals used in this study are described below: • Species: Mus musculus • Strain: Athymic Nude-Foxn1^nu (immune-compromised) • Source: Envigo (Indianapolis, Ind., USA) • Number of animals per group: 2 • Age and sex: At least 6-8 weeks of age at start of dosing, female • Weight: At least 18 grams at start of dosing • Acclimation period: 3 days
(§4) Stock mice were implanted with tumor cells from Champions TumorGraft® models CTG-0160, CTG-0170, CTG-0178, CTG-0192, CTG-0363, CTG-0808, CTG-0838, CTG-0848, CTG-1212, CTG-1502, CTG-1535, CTG-2011, CTG-2393, CTG-2539 or CTG-2540. After the tumors reached 1000-1500 mm^3, they were harvested and the tumor fragments (approximately 5×5×5 mm^3) were implanted SC in the left flank of the female study mice. Each animal was implanted with a specific passage lot and documented. Tumor growth was monitored twice a week using digital calipers and the tumor volume (TV) was calculated using the formula (0.52×[length×width^2]). When the TV reached an average volume of 150-300 mm^3, animals were matched by tumor size and assigned into Vehicle Control and treatment groups (n=2/group) and dosing was initiated on Day 0. After the initiation of dosing on Day 0, animals were weighed twice per week using a digital scale and TV was measured twice per week and also on the final day of study. The study was completed when the mean tumor volume of Vehicle Control reached 1500 mm^3 or up to Day 60, whichever occurred first.
(§5) Beginning on Day 0, animals were observed daily and weighed twice weekly using a digital scale; data including individual and mean gram weights, mean percent weight change versus Day 0 (% vD0) were recorded for each group and % vD0 plotted at study completion. […] Treatment resulting in a mean % vD0>20% and/or >10% mortality was considered above the maximum tolerated dose. Maximum mean % vD0 (weight nadir) for each treatment group was reported at study completion.
(§6) Inhibition of tumor growth was determined by calculating the percent TGI (100%×[1−(final MTV−initial MTV of a treated group)/(final MTV−initial MTV of the control group)]). Treatment started on Day 0.
(§7) Additional endpoints used to evaluate efficacy were: the number of complete responders (CR), partial responders (PR), and tumor-free survivors (TFS). PRs were considered exclusive of CRs, as were TFS.
(§8) Statistical analyses of anti-tumor efficacy were performed using one-way ANOVA followed by Dunnett's multiple comparisons test (GraphPad Prism version 8.2.0). Significant p-values=<0.05.
Animals were dosed according to the schedule on Table 7-1. The study was terminated on Day 28.

Data set [2] deals with CTG-1212. In words: Champions TumorGraft NSCLC PDX efficacy, model CTG-1212. The method, then: as §1, §2, §3, §4, §5, §6, §7, §8
Animals were dosed according to the schedule on Table 7-1. The study was terminated on Day 27.

Data set [3] relates to CTG-0808. Put plainly: Champions TumorGraft NSCLC PDX efficacy, model CTG-0808. The method, then: as §1, §2, §3, §4, §5, §6, §7, §8
Animals were dosed according to the schedule on Table 7-1. The Vehicle Control reached endpoint on Day 14 and the study was terminated on Day 28.

Where [4] appears, read: CTG-0363, 3 mg/kg IV Q7Dx4, Day 0-28.
Setting [5] is: CTG-1212, 3 mg/kg IV Q7Dx4, Day 0-27.
Where [6] appears, read: CTG-0808, 3 mg/kg IV Q7Dx4, Day 0-28.

Consider `CC[C@H](C)[C@@H]([C@@H](CC(=O)N1CCC[C@H]1[C@H](OC)[C@@H](C)C(=O)N[C@H](C)[C@@H](O)c1ccccc1)OC)N(C)C(=O)[C@@H](NC(=O)[C@H](C(C)C)N(C)C(=O)OCc1ccc(NC(=O)[C@H](CCCNC(N)=O)NC(=O)[C@@H](NC(=O)CCCC(=O)ON2C(=O)CCC2=O)C(C)C)cc1)C(C)C` [BT5528] (X1-V[Cit][PABC][NMeV]V[Dil][Dolaproine]-X2), for which the “mean body weight loss” value in data set [1] (3 mg/kg IV Q7Dx4) is given as “no mean body weight loss”; in data set [2] (3 mg/kg IV Q7Dx4), “minor mean body weight losses”. Moreover, the “MTV (mean tumor volume)” value in data set [1] (3 mg/kg IV Q7Dx4, Day 28) is 1609±18 mm^3; in data set [2] (3 mg/kg IV Q7Dx4, Day 27), 128±53 mm^3; in data set [3] (3 mg/kg IV Q7Dx4, Day 14), 541±4 mm^3. Moreover, the TGI in data set [1] (3 mg/kg IV Q7Dx4, Day 28) is listed as 26%; in data set [2] (3 mg/kg IV Q7Dx4, Day 27) it was 112%; in data set [3] (3 mg/kg IV Q7Dx4, Day 14), 76%. The “# CR (complete responders)” value in data set [1] (setting [4]), in data set [2] (setting [5]) and in data set [3] (setting [6]) was 0/0/0 in each case. The “# PR (partial responders)” value in data set [1] (setting [4]), in data set [2] (setting [5]) and in data set [3] (setting [6]) was 0/0/0 each time. For the same compound, the “# TFS (tumor-free survivors)” value in data set [1] (setting [4]), in data set [2] (setting [5]) and in data set [3] (setting [6]) was 0/0/0 in each case. Also, the “% TGI” value in data set [1] (CTG-0363, 3 mg/kg IV Q7Dx4, Day 28) is recorded as 26%; in data set [2] (CTG-1212, 3 mg/kg IV Q7Dx4, Day 27) it was 112%; in data set [3] (CTG-0808, 3 mg/kg IV Q7Dx4, Day 14), 76%. In data set [1] (CTG-0363, BT5528 3 mg/kg IV Q7Dx4, Day 28, n=2), the “Day 28 Tumor Volume Mean TV ± SEM” value is recorded as 1609 ± 18 mm^3. Moreover, the “Day 27 Tumor Volume Mean TV ± SEM” value in data set [2] (CTG-1212, BT5528 3 mg/kg IV Q7Dx4, Day 27, n=2) turned out to be 128 ± 53 mm^3. Also, the “Day 14 Tumor Volume Mean TV ± SEM” value in data set [3] (CTG-0808, BT5528 3 mg/kg IV Q7Dx4, Day 14, n=2) amounted to 541 ± 4 mm^3.
